This passage reports EC50, inhibition and mortality results from US12559481B2, “Quinoline derivatives” (ELANCO ANIMAL HEALTH GMBH, priority 2018, dated 2026).

For assay [1], the system named is Dirofilaria immitis third-stage larvae. Description: In vitro assay 5: Dirofilaria immitis (DIROIM L4) larval motility. As to conditions: 72 h, read-out: EC50 (reduction of motility).
Assay [2] deals with Adult Nippostrongylus brasiliensis. Briefly: In vitro assay 3: Nippostrongylus brasiliensis (NIPOBR), acetylcholine esterase readout. As to conditions: 1 μg/ml, read-out: activity (reduction of AChE compared to negative control). The protocol: In Vitro Assay 3: Nippostrongylus Brasiliensis (NIPOBR)
Adult Nippostrongylus brasiliensis were washed with saline buffer containing 100 U/ml penicillin, 0.1 mg/ml streptomycin and 2.5 μg/ml amphotericin B. Test compounds were dissolved in DMSO and worms were incubated in medium in a final concentration of 10 μg/ml (10 ppm) respectively 1 μg/ml (1 ppm). An aliquot of the medium was used to determine the acetylcholine esterase activity in comparison to a negative control. The principle of measuring acetylcholine esterase as readout for anthelmintic activity was described in Rapson et al (1986) and Rapson et al (1987).

For the next assay, the system named is Haemonchus contortus. Briefly: In vitro assay 7: Haemonchus contortus (HAEMCO) larval mortality. As to conditions: 120 h, read-out: activity (larval mortality).
A further assay concerns Cooperia curticei. Briefly: In vitro assay 6: Cooperia curticei (COOPCU) larval mortality. The following applies: 120 h, read-out: activity (larval mortality).
Assay [3] has as its system Dirofilaria immitis microfilariae. Briefly: In vitro assay 4: Dirofilaria immitis microfilariae (DIROIM L1) motility. The following applies: 72 h, read-out: EC50 (reduction of motility).
Another assay addresses C. elegans Slo-1a (Caenorhabditis elegans, UniProt Q95V25).
Another assay addresses D. immitis Slo-1 (Dirofilaria immitis, UniProt I0DFK5). Briefly: In vitro assay 2: D. immitis Slo-1, membrane potential in recombinant CHO cell line. The assay is classed as cell-based.

Usually EC50 stands for the concentration that produces a half-maximal response. What is called mortality is the share of the test organisms that died.

Sequence of C. elegans Slo-1a (Q95V25 whole entry): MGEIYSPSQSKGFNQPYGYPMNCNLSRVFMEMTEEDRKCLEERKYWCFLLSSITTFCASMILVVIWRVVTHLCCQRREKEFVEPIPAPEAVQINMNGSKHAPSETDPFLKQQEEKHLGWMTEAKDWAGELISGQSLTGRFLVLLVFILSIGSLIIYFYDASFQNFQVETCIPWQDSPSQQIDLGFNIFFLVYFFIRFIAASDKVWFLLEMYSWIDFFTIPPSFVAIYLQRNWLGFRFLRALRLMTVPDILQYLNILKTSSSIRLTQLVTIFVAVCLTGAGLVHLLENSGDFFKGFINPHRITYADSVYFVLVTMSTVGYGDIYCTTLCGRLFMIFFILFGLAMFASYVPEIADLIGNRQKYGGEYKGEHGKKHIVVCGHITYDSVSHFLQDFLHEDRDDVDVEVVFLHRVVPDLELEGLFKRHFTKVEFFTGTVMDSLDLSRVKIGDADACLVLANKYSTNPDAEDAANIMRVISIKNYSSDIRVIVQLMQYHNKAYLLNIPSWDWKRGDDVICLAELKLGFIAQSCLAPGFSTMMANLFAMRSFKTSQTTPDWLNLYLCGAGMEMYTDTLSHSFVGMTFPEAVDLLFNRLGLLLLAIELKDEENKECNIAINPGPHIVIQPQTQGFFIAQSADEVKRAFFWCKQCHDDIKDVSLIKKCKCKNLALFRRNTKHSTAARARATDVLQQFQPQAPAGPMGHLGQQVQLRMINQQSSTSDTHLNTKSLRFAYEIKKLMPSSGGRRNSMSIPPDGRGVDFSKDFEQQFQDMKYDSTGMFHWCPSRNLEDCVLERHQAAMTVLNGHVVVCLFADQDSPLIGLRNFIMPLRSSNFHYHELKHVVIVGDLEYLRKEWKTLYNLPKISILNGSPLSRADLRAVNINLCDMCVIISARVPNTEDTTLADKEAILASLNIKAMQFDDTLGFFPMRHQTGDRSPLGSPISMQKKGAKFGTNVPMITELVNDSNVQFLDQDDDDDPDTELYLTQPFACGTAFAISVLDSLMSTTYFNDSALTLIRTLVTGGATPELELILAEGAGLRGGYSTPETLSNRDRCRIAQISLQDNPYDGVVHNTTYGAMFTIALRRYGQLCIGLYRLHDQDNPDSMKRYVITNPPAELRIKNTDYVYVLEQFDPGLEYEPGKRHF
Sequence of D. immitis Slo-1 (I0DFK5 1-1119): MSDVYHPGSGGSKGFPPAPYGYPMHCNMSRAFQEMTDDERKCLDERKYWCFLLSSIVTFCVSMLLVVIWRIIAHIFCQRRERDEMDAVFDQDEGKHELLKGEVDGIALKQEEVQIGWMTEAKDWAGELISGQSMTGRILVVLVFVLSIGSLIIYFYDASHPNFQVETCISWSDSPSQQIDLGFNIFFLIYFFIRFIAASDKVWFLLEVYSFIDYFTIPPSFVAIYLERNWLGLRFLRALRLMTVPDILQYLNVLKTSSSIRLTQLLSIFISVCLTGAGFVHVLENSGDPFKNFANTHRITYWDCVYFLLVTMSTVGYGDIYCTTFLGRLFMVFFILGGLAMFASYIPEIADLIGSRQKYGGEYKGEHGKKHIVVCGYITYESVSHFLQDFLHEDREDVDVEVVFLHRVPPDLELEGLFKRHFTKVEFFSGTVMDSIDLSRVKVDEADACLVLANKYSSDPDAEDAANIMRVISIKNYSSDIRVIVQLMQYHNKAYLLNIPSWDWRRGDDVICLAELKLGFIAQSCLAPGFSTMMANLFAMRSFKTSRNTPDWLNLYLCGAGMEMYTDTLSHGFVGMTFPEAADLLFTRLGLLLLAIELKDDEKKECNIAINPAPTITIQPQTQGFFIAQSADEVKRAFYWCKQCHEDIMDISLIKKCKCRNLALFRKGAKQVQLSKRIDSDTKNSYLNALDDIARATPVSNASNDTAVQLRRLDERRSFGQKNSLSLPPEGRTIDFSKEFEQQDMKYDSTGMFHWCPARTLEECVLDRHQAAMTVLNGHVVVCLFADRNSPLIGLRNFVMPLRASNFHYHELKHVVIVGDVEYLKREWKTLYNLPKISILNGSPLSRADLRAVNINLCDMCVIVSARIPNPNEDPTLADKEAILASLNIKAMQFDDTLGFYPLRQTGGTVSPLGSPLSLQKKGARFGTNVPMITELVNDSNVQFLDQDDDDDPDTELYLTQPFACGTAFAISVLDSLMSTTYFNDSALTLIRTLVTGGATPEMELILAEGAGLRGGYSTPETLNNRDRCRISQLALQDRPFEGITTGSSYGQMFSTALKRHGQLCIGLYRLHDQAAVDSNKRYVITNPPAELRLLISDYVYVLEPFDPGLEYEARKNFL
Protocol for C. elegans Slo-1a: In Vitro Assay 1: C. elegans Slo-1a—Action at a Recombinant C. elegans Cell Line
Generation of a Stable C. elegans CHO Cell Line
For transfection with plasmid DNA to express C. elegans Slo-1a (accession number AAL28102) CHO cells were passaged to 40% confluence before adding the transfection solution to the cell culture. The transfection solution included 300 μL OptiMEM (Life Technologies, Nr.: 31985), 2 μL (=6 μg) of plasmid DNA containing the C. elegans Slo 1a gene and 9 μL FugeneHD (Promega, Nr.: E2311), and was added to the cells prior to incubation for 48 hours at 37° C., 5% CO2. The transfection medium was exchanged for the selection medium which contains additional G418 (2 mg/ml, Invitrogen, Nr.: 10131) and the cells were seeded into 384 well plates (300 cells/well). After a few weeks, the remaining surviving cells were tested with a voltage sensitive dye (Membrane Potential Assay Kit, Molecular Devices Nr.: R8034) for K+ channel expression. Positive cell clones were purified by the limited dilution technique. For this the clone with the highest and most robust signal in the voltage sensitive dye assay was further subcloned (incubated) in 384 well plates (0.7 cells/well) in order to obtain clonal purity. This generated a final stable CHO cell line expressing the C. elegans Slo-1a.
Cells were cultured at 37° C., and 5% CO2 in MEMalpha with Glutamax I (Invitrogen, Nr.: 32571), supplemented with 10% (v/v) heat inactivated fetal bovine serum (Invitrogen, Nr.: 10500), G418 (1 mg/ml. Invitrogen. Nr.: 10131). Cells were detached using Accutase (Sigma. Nr.: A6964).
Membrane Potential Measurements
Laboratory compound testing was performed on 384-well microtiter plates (MTPs, Greiner, Nr.: 781092), 8000 cells/well were plated onto 384-well MTPs and cultured for 20 to 24 hours at 37° C., and 5% CO2. After removal of the cell culture medium, the cells were washed once with tyrode (150 mM NaCl, 0.3 mM KCl, 2 mM CaCl2. 1 mM MgCl2. 0.8 mM NaH2PO4, 5 mM Glucose, 28 mM Hepes, pH 7.4) and then loaded with the voltage sensitive dye of the Membrane Potential Assay Kit diluted in tyrode for 1 h at room temperature.
After starting the measurement of fluorescence using a FLIPR Tetra (Molecular Devices, Exc. 510-545 nm, Emm. 565-625 nm), test compounds were added followed by the addition of KCl tyrode (final assay concentration: 70 mM KCl, 2 mM CaCl2, 1 mM MgCl2, 0.8 mM NaH2PO4, 5 mM Glucose, 28 mM Hepes, pH 7.4, including the voltage sensitive dye). The measurement was completed after 7 minutes.
The data were evaluated by using the ActivityBase XLfit software (IDBS) for curve fitting and calculation of the half-maximal effective concentration (EC50) and are reported as negative decadic logarithm (pE50).
Protocol for Cooperia curticei: In Vitro Assay 6: Cooperia curticei (COOPCU)
Solvent: Dimethyl Sulfoxide
Approximately 40 nematode larvae (Cooperia curticei) are transferred into a test tube containing the compound solution.
After 5 days percentage of larval mortality is recorded. 100% efficacy means all larvae are killed; 0% efficacy means no larvae are killed.
Protocol for Haemonchus contortus: In Vitro Assay 7: Haemonchus contortus (HAEMCO)
Solvent: Dimethyl Sulfoxide
Approximately 40 larvae of the red stomach worm (Haemonchus contortus) are transferred into a test tube containing compound solution.
After 5 days the percentage of larval mortality is recorded. 100% efficacy means all larvae are killed, 0% efficacy means no larvae are killed.

With `O=C(N[C@H]1CCOc2ccccc21)c1cnc2c(-c3cc(F)cc(F)c3F)cccc2c1C1=CCOCC1` [Example 1, N-[(4S)-3,4-Dihydro-2H-chromen-4-yl]-4-(3,6-dihydro-2H-pyran-4-yl)-8-(2,3,5-trifluorophenyl)quinoline-3-carboxamide], the EC50 was < 0.1 µg/mL in assay [1], < 0.1 µg/mL in assay [3], < 3.16 nM at C. elegans Slo-1a and 31.6 to 316 nM on D. immitis Slo-1. Moreover, in assay [2], the inhibition at 1 µg/mL is > 80%. Moreover, the mortality at 20 ppm with Haemonchus contortus is 80%; in the assay with Cooperia curticei, 90%. Moreover, the mortality at 0.8 ppm in the assay on Cooperia curticei is 90%. Further, in the assay with Cooperia curticei, the mortality at 4 ppm is 90%.
